Experimental data from patent publication US10968214B2, “KRas G12C inhibitors” (Eli Lilly and Company, priority 2018, dated 2021).
Read-outs that look alike come from different tables or passages of the source.

How the values were obtained:
Format in all cases: cell-based
Calu-1 = assay: Combination 4 day growth assay (Cell TiterGlo), Calu-1; conditions: Homo sapiens, Calu-1, 96 h, single treatment, read-out: Absolute IC50
Method: (§1) Cell lines for this study are obtained from ATCC and grown under ATCC recommended conditions, except for LXFA-983L, which is obtained from Oncotest/Charles Rivers Laboratories, Wilmington, Mass. and D122-96, which is obtained from L. Eisenbach (Weizman Institute of Science, Rehovot, Israel)—both grown under recommended conditions. […] The proliferation assay is performed as a 4 day growth assay using Cell TiterGlo® as the readout. Briefly, cells are plated in 96-well cell culture plates and allowed to adhere overnight at 37° C. The following day, cells are treated with compounds, either single treatments or combination treatments. First, the testing compounds are serially diluted in DMSO, followed by dilution into media as a 5× concentration with 1% DMSO, and finally added to cells in media to dilute to 1×. The cells are incubated at 37° C. for 4 more days. At the end of the incubation period, Cell TiterGlo® reagent is mixed and added to the wells. After 10 minutes, the luminescence is read by a Perkin Elmer Envision instrument. Absolute IC50 values generated by a 4-parameter logistics model for the single and combination treatments are generated, followed by combination indexes for each combination treatment and cell line. The combination IC50 values are adjusted based on the total concentration of each compound when added together. […] The combination index (CI) measures the degree to which the potency of a combination therapy differs from the expected-if-additive potency and is based on the Loewe definition of additivity.
(§2) [formula] Where • CAy and CBy are the concentrations of therapies A and B that produce an effect, y, when given in combination • ICAy and ICBy are the concentrations of A and B that produce an effect, y, when given individually The biological interpretation of the combination index is as follows: synergistic if the combination index <0.5, additive if the combination index is between 0.5 and 2, and antagonistic if the combination index is >2.

H441 = assay: CellTiterGlo Cell Proliferation Assay, H441; conditions: Homo sapiens, NCI-H441, KRas G12V, lung, 96 hr
Method: A panel of tumor cell lines harboring KRas G12C or other KRas mutations are collected (Table 6). All cell lines are from ATCC or other sources indicated.
Typically cells are cultured in RPMI1640 or Dulbecco's modified Eagle's medium (DMEM, GIBCO) supplemented with 10% FBS (GIBCO, Invitrogen). For 2D culture cells (4×10^3/well) maintained in growth medium described above, are plated onto 96 well tissue culture plates Corning® Cat. 3603) a day before the treatment. For 3D culture 8000 cells/well are seeded onto 96 well ultra-low attachment tissue culture plates (Corning, #3474). The cells are treated compound for 96 hr, and then are analyzed for viability using the CellTiterGlo® Luminescent Cell Viability Assay® (Promega #G7572 for 2D and Promega #G9683 for 3D cultures) according to manufacturer's instructions and an EnVision™ plate reader. Nonlinear regression and sigmoidal dose-response curves are used to calculate the half maximal inhibitory concentration (IC50) with GraphPad Prism 4® software.

SW1573 = assay: Combination 4 day growth assay (Cell TiterGlo), SW1573; conditions: Homo sapiens, 96 h, single treatment, read-out: Absolute IC50
Method: as §1, §2

D122-96 = assay: Combination 4 day growth assay (Cell TiterGlo), D122-96; conditions: Mus musculus, 96 h, single treatment, read-out: Absolute IC50
Method: as §1, §2

SW1463 = assay: Combination 4 day growth assay (Cell TiterGlo), SW1463; conditions: Homo sapiens, SW1463, 96 h, single treatment, read-out: Absolute IC50
Method: as §1, §2

C=CC(=O)N1CCN(c2ncnc3c(F)c(-c4ccc(F)c5sc(N)nc45)c(Cl)cc23)CC1 [Example 1, 1-{4-[7-(2-Amino-7-fluoro-1,3-benzothiazol-4-yl)-6-chloro-8-fluoroquinazolin-4-yl]piperazin-1-yl}prop-2-en-1-one]
IC50 (Calu-1): 14.5 nM
IC50 (H441; read-out: IC50 (μM) in 2 D cell proliferation): 16.5 µM
IC50 (H441; read-out: IC50 (μM) in 3 D spheroid cell proliferation): 7.89 µM
IC50 (SW1573): > 10000 nM
IC50 (D122-96): 124 nM
IC50 (SW1463): 14.1 nM
